Consider 14 compounds from PubChem BioAssay AID330 (DTP/NCI, 2004).

“And” between values parts separate entries of the source, which are not always exact repeats. Equal entries are not always repeated. Inconclusive results and toxic doses are left out.

The assay concerns P388 leukemia ip, CD2F1 mice, survival T/C. The experiment in a line: NCI In Vivo Anticancer Drug Screen. Data for tumor model P388 Leukemia (intraperitoneal) in CD2F1 (CDF1) mice. The note with it: endpoint: median survival time, higher = longer survival. Put shortly: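 Mice carrying the transplanted tumor received test compound or vehicle. Survival was recorded in each group, and the value is the treated-group measurement divided by that of the vehicle-treated control group.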

The mark [1] stands for this setting: dose: 50.0 mg/kg/injection, schedule: Q01DX005 (ip), vehicle: Klucel (hydroxypropylcellulose) (HPC).
The mark [2] stands for this setting: dose: 100.0 mg/kg/injection, schedule: Q01DX005 (ip), vehicle: Klucel (hydroxypropylcellulose) (HPC).
[3] abbreviates: dose: 200.0 mg/kg/injection, schedule: Q01DX005 (ip), vehicle: Klucel (hydroxypropylcellulose) (HPC).
The mark [4] stands for this setting: dose: 50.0 mg/kg/injection, schedule: Q01DX005 (ip), vehicle: saline with Tween-80.
The mark [5] stands for this setting: dose: 100.0 mg/kg/injection, schedule: Q01DX005 (ip), vehicle: saline with Tween-80.

Consider `Oc1ccccc1C=Nc1ccccc1N=Cc1ccccc1O.[Cu]`, for which the T/C runs as follows: under setting [1], 99 % of control; under setting [2], 97 % of control; under setting [3], 90 % of control.
On the same counts, the results for `Cc1ccc(OCCCCBr)c(Br)c1` are 105 % of control, 101 % of control and 97 % of control.
Regarding `O=C(c1ccccc1)c1cccc(C(=O)c2ccccc2)c1`, the T/C is 99 % of control (dose: 25.0 mg/kg/injection, schedule: Q01DX005 (ip), vehicle: saline with Tween-80); 104 % of control under setting [4]; 95 % of control under setting [5]; 105 % of control (dose: 200.0 mg/kg/injection, schedule: Q01DX005 (ip), vehicle: saline with Tween-80).
As for `CCOC(=O)n1oc2c(Br)cc(Br)cc2c1=O`, the T/C by setting is: (dose: 50.0 mg/kg/injection, schedule: Q04DX002 (ip), vehicle: Klucel (hydroxypropylcellulose) (HPC)) 105 % of control; (dose: 100.0 mg/kg/injection, schedule: Q04DX002 (ip), vehicle: Klucel (hydroxypropylcellulose) (HPC)) 99 % of control; (dose: 200.0 mg/kg/injection, schedule: Q04DX002 (ip), vehicle: Klucel (hydroxypropylcellulose) (HPC)) 101 % of control.
`CCc1nc(N)nc(N)c1-c1ccc(Cl)c([N+](=O)[O-])c1`: the T/C runs as follows: (dose: 0.78 mg/kg/injection, schedule: Q01DX009 (ip), vehicle: distilled water + Tween-80) 105 % of control; (dose: 3.13 mg/kg/injection, schedule: Q01DX009 (ip), vehicle: distilled water + Tween-80) 120 % of control and 123 % of control; (dose: 6.25 mg/kg/injection, schedule: Q01DX009 (ip), vehicle: distilled water + Tween-80) 170 % of control; (dose: 12.5 mg/kg/injection, schedule: Q01DX009 (ip), vehicle: distilled water + Tween-80) 163 % of control.
`COC12CC(C)(C)OC1C(C)C1C(CC3(C)C4CC=C5C(C=C(O)C(=O)C5(C)C)C4(C)C(=O)CC13C)O2` (configuration not stated): the T/C is, setting by setting: (dose: 100.0 mg/kg/injection, schedule: Q04DX002 (ip), vehicle: saline) 100 % of control; (dose: 200.0 mg/kg/injection, schedule: Q04DX002 (ip), vehicle: saline) 100 % of control; (dose: 400.0 mg/kg/injection, schedule: Q04DX002 (ip), vehicle: saline) 100 % of control.
Turning to `O=c1[nH]c2ncccc2c(O)c1-c1ccccc1`, the T/C is, setting by setting: (dose: 50.0 mg/kg/injection, schedule: Q01DX009 (ip), vehicle: saline) 107 % of control; (dose: 100.0 mg/kg/injection, schedule: Q01DX009 (ip), vehicle: saline) 96 % of control; (dose: 200.0 mg/kg/injection, schedule: Q01DX009 (ip), vehicle: saline) 96 % of control.
For `ClCC1=NC2CCCCC2N1` (configuration not stated), the T/C by setting is: under setting [4], 102 % of control; under setting [5], 98 % of control.
Turning to `COC1=CCC2C(=O)C=CC(=O)C2C1` (configuration not stated), the T/C reads like this: (dose: 12.5 mg/kg/injection, schedule: Q01DX005 (ip), vehicle: Klucel (hydroxypropylcellulose) (HPC)) 101 % of control; (dose: 25.0 mg/kg/injection, schedule: Q01DX005 (ip), vehicle: Klucel (hydroxypropylcellulose) (HPC)) 93 % of control; under setting [1], 101 % of control; under setting [2], 96 % of control; under setting [3], 101 % of control.
`CCCc1c(Cl)[nH]c(=O)n(C)c1=O`: the T/C runs as follows: under setting [1], 111 % of control; under setting [2], 111 % of control; under setting [3], 97 % of control.
In the case of `OC(C1CO1)C(O)C1CO1` (configuration not stated), the T/C by setting is: (dose: 0.5 mg/kg/injection, schedule: Q01DX005 (ip), vehicle: saline) 113 % of control and 124 % of control; (dose: 0.5 mg/kg/injection, schedule: Q01DX009 (ip), vehicle: water) 175 % of control; (dose: 1.0 mg/kg/injection, schedule: Q01DX009 (ip), vehicle: saline) 167 % of control and 179 % of control; (dose: 1.0 mg/kg/injection, schedule: Q01DX009 (ip), vehicle: water) 185 % of control; (dose: 1.3 mg/kg/injection, schedule: Q01DX005 (ip), vehicle: saline) 121 % of control; (dose: 1.5 mg/kg/injection, schedule: Q01DX009 (ip), vehicle: saline) 155 % of control and 196 % of control. Also, the T/C by setting is: (dose: 2.0 mg/kg/injection, schedule: Q01DX009 (ip), vehicle: saline with Tween-80) 159 % of control; (dose: 2.0 mg/kg/injection, schedule: Q01DX009 (ip), vehicle: saline) 194 % of control and 207 % of control; (dose: 2.0 mg/kg/injection, schedule: Q01DX009 (ip), vehicle: water) 256 % of control; (dose: 3.0 mg/kg/injection, schedule: Q01DX005 (ip), vehicle: saline) 170 % of control and 181 % of control; (dose: 3.0 mg/kg/injection, schedule: Q01DX009 (ip), vehicle: saline) 227 % of control; (dose: 4.0 mg/kg/injection, schedule: Q01DX005 (ip), vehicle: saline) 216 % of control and 229 % of control. Moreover, the T/C (dose: 4.0 mg/kg/injection, schedule: Q01DX009 (ip), vehicle: saline with Tween-80) was 213 % of control; the T/C (dose: 4.0 mg/kg/injection, schedule: Q01DX009 (ip), vehicle: saline) was 291 % of control; the T/C (dose: 4.5 mg/kg/injection, schedule: Q01DX005 (ip), vehicle: saline) was 190 % of control and 225 % of control; the T/C (dose: 6.0 mg/kg/injection, schedule: Q01DX009 (ip), vehicle: saline) was 89 % of control; the T/C (dose: 6.7 mg/kg/injection, schedule: Q01DX001 (ip), vehicle: saline) is 157 % of control and 179 % of control; the T/C (dose: 6.7 mg/kg/injection, schedule: Q01DX005 (ip), vehicle: saline) is 266 % of control. The T/C reads like this: (dose: 6.7 mg/kg/injection, schedule: Q04DX003 (ip), vehicle: saline) 243 % of control and 254 % of control; (dose: 8.0 mg/kg/injection, schedule: Q01DX005 (ip), vehicle: saline) 89 % of control; (dose: 8.0 mg/kg/injection, schedule: Q01DX009 (ip), vehicle: saline with Tween-80) 100 % of control; (dose: 8.0 mg/kg/injection, schedule: Q01DX009 (ip), vehicle: saline) 103 % of control; (dose: 10.0 mg/kg/injection, schedule: Q04DX003 (ip), vehicle: saline) 281 % of control and 298 % of control; (dose: 12.5 mg/kg/injection, schedule: Q04DX003 (ip), vehicle: saline) 108 % of control. Further, the T/C (dose: 25.0 mg/kg/injection, schedule: Q01DX009 (ip), vehicle: saline with Tween-80) was 100 % of control; the T/C (dose: 25.0 mg/kg/injection, schedule: Q04DX003 (ip), vehicle: saline sonified) was 100 % of control; the T/C (dose: 50.0 mg/kg/injection, schedule: Q01DX009 (ip), vehicle: saline with Tween-80) was 104 % of control; the T/C (dose: 50.0 mg/kg/injection, schedule: Q04DX003 (ip), vehicle: saline sonified) was 100 % of control; the T/C (dose: 100.0 mg/kg/injection, schedule: Q01DX009 (ip), vehicle: saline with Tween-80) is 109 % of control; the T/C (dose: 100.0 mg/kg/injection, schedule: Q04DX003 (ip), vehicle: saline sonified) was 104 % of control.
For `COc1cc2cc(c1Cl)N(C)C(=O)CC(OC(=O)C(C)N(C)C(=O)C(C)C)C1(C)OC1C(C)C1CC(OC)(NC(=O)O1)C(OC)/C=C/C=C(C)C2OC` (configuration not stated), the T/C is 98 % of control (dose: 16.0 mg/kg/injection, schedule: Q01DX009 (ip), vehicle: saline); 114 % of control (dose: 32.0 mg/kg/injection, schedule: Q01DX009 (ip), vehicle: saline); 100 % of control (dose: 64.0 mg/kg/injection, schedule: Q01DX009 (ip), vehicle: saline); 100 % of control (dose: 128.0 mg/kg/injection, schedule: Q01DX009 (ip), vehicle: saline); 99 % of control (dose: 4.0 micrograms/kg/injection, schedule: Q01DX009 (ip), vehicle: saline); 99 % of control (dose: 8.0 micrograms/kg/injection, schedule: Q01DX009 (ip), vehicle: saline). Further, the T/C runs as follows: (dose: 16.0 micrograms/kg/injection, schedule: Q01DX009 (ip), vehicle: saline) 103 % of control; (dose: 32.0 micrograms/kg/injection, schedule: Q01DX009 (ip), vehicle: saline) 111 % of control.
For `CN(C)CN1C(=O)CC(c2ccccc2)C1=O` (configuration not stated), the T/C is 110 % of control (dose: 50.0 mg/kg/injection, schedule: Q01DX005 (ip), vehicle: saline); 107 % of control (dose: 100.0 mg/kg/injection, schedule: Q01DX005 (ip), vehicle: saline); 115 % of control (dose: 200.0 mg/kg/injection, schedule: Q01DX005 (ip), vehicle: saline).
Turning to `COC(=O)c1nc2c(c(=O)n(C)c(=O)n2C)n1C`, the T/C (dose: 60.0 mg/kg/injection, schedule: Q01DX005 (ip), vehicle: saline with Tween-80) was 94 % of control; the T/C (dose: 120.0 mg/kg/injection, schedule: Q01DX005 (ip), vehicle: saline with Tween-80) was 96 % of control; the T/C (dose: 240.0 mg/kg/injection, schedule: Q01DX005 (ip), vehicle: saline with Tween-80) was 89 % of control.
